Molecules are shown by their SMILES. Several values for one entry are separate records, joined by “and”; a condition that tells them apart may be missing. Equal values may be shown once. Activity calls are given as the source filed them. No cut-off for these calls is given here.

Among the data in ChEMBL document CHEMBL4476877, “Treatment of COPD, gastro-esophageal reflux disease (GERD), food allergies and other gastrointestinal conditions and disorders ameliorated by proper histamine management using a combination of histidine decarboxylase inhibitors, LRA drugs, anti-H1 and/or anti-H2 drugs” (2012) are inhibition and Activity values, retold here.

Assay [1] deals with T1, Histidine decarboxylase (Homo sapiens) (UniProt P19113).
T1 sequence (whole entry): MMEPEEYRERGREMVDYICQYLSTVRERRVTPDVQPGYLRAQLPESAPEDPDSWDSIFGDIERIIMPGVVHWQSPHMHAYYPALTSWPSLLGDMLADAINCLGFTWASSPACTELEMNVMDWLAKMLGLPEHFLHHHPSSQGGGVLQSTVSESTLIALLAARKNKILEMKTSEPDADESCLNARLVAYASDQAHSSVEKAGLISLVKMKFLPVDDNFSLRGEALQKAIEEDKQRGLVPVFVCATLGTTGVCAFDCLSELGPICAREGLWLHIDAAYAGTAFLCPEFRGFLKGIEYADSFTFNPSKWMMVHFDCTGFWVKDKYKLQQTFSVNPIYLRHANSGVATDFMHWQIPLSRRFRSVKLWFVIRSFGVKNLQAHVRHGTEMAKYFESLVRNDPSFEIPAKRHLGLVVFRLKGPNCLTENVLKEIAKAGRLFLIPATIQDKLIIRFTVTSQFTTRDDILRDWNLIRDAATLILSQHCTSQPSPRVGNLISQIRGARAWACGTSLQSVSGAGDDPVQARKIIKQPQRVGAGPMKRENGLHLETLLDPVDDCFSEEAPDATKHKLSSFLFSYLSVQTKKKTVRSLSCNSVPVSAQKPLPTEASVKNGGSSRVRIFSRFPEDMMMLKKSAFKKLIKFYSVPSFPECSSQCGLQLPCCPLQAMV
The assay is described as follows: Inhibition of recombinant human HDC (1 to 512 residues) expressed in Escherichia coli BL21 (DE3) pLysS assessed as reduction in [14C]CO2 production from L-[U-14C]histidine at 10 uM relative to untreated control.

Assay [2] relates to Homo sapiens. The assay is described as follows: Improvement in disease symptoms in GERD patient assessed as improvement in global disease scores at 200 mg dosed daily co-treated with 10 mg anti-H1 drug loratadine dosed daily and 150 mg anti-H2 drug Ranitidine dosed daily. It counts as functional, organism-based.
In assay [3] the test system is Homo sapiens. Description: Prevention of food allergy in pediatric patient with history of anaphylaxis due to nut allergy assessed as reduction in diarrhea at 200 mg dosed daily for 6 months co-administered with 10 mg Montelukast dosed daily. The class given is functional, organism-based.
The subject of assay [4] is Homo sapiens. Description: Improvement in disease symptoms in GERD patient assessed as reduction in cough at 200 mg dosed daily co-treated with 150 mg anti-H2 drug Ranitidine dosed daily. The class given is functional, organism-based.
For assay [5], the system named is Homo sapiens. The assay is described as follows: Improvement in disease symptoms in GERD patient assessed as reduction in cough at 200 mg dosed daily. It counts as functional, organism-based.
Assay [6] has as its system Homo sapiens. The assay is described as follows: Improvement in disease symptoms in GERD patient assessed as improvement in global disease scores at 200 mg dosed daily. The class given is functional, organism-based.
Assay [7] concerns Homo sapiens. The assay is described as follows: Improvement in disease symptoms in GERD patient assessed as reduction in cough at 200 mg dosed daily co-treated with 10 mg anti-H1 drug loratadine dosed daily and 150 mg anti-H2 drug Ranitidine dosed daily. It counts as functional, organism-based.
Assay [8] concerns Homo sapiens. The assay is described as follows: Improvement in disease symptoms in GERD patient assessed as reduction in regurgitation at 200 mg dosed daily. The class given is functional, organism-based.
For assay [9], the system named is Homo sapiens. Description: Improvement in disease symptoms in GERD patient assessed as reduction in regurgitation at 200 mg dosed daily co-treated with 10 mg anti-H1 drug loratadine dosed daily. It counts as functional, organism-based.
Assay [10] concerns Homo sapiens. The assay is described as follows: Improvement in disease symptoms in GERD patient assessed as reduction in heartburns at 200 mg dosed daily co-treated with 150 mg anti-H2 drug Ranitidine dosed daily. The class given is functional, organism-based.
The subject of assay [11] is Homo sapiens. The assay is described as follows: Improvement in disease symptoms in GERD patient assessed as reduction in heartburns at 200 mg dosed daily co-treated with 10 mg anti-H1 drug loratadine dosed daily and 150 mg anti-H2 drug Ranitidine dosed daily. It counts as functional, organism-based.
Assay [12] concerns Homo sapiens. Description: Improvement in disease symptoms in GERD patient assessed as improvement in global disease scores at 200 mg dosed daily co-treated 150 mg anti-H2 drug Ranitidine dosed daily. The class given is functional, organism-based.
Assay [13] deals with Homo sapiens. The assay is described as follows: Prevention of food allergy in pediatric patient with history of anaphylaxis due to nut allergy assessed as reduction in digestive symptoms at 200 mg dosed daily over 8 months co-administered with 10 mg Montelukast dosed daily. The class given is functional, organism-based.
The test system of assay [14] is Homo sapiens. The assay is described as follows: Improvement in disease symptoms in GERD patient assessed as reduction in cough at 200 mg dosed daily co-treated with 10 mg anti-H1 drug loratadine dosed daily. The class given is functional, organism-based.
Assay [15] has as its system Homo sapiens. The assay is described as follows: Prevention of food allergy in pediatric patient with history of anaphylaxis due to nut allergy assessed as reduction in allergic reactions at 200 mg dosed daily for 6 months co-administered with 10 mg Montelukast dosed daily. The class given is functional, organism-based.
In assay [16] the test system is Homo sapiens. Description: Prevention of food allergy in pediatric patient with history of anaphylaxis due to nut allergy assessed as reduction in allergic reactions at 200 mg dosed daily for 6 weeks co-administered with 10 mg Montelukast dosed daily. The class given is functional, organism-based.
For assay [17], the system named is Homo sapiens. The assay is described as follows: Prevention of food allergy in patient with history of anaphylaxis due to allergens assessed as reduction in allergy symptoms to pea nut ingestion at 200 mg dosed daily for 8 months co-administered with 10 mg Montelukast dosed daily. It counts as functional, organism-based.
In assay [18] the test system is Homo sapiens. Description: Improvement in disease symptoms in GERD patient assessed as reduction in regurgitation at 200 mg dosed daily co-treated with 150 mg anti-H2 drug Ranitidine dosed daily. The class given is functional, organism-based.
Assay [19] deals with Homo sapiens. Description: Prevention of food allergy in patient with history of anaphylaxis due to ingestion of shrimps assessed as reduction in allergy symptoms at 200 mg dosed daily for 6 weeks co-administered with 10 mg Montelukast dosed daily. It counts as functional, organism-based.
Assay [20] has as its system Homo sapiens. Description: Improvement in disease symptoms in GERD patient assessed as improvement in global disease scores at 200 mg dosed daily co-treated with 10 mg anti-H1 drug loratadine dosed daily. The class given is functional, organism-based.
The test system of assay [21] is Homo sapiens. Description: Prevention of food allergy in pediatric patient with history of anaphylaxis due to nut allergy assessed as reduction in stomach pain at 200 mg dosed daily for 6 months co-administered with 10 mg Montelukast dosed daily. It counts as functional, organism-based.
The subject of assay [22] is Homo sapiens. Description: Prevention of food allergy in pediatric patient with history of anaphylaxis due to nut allergy assessed as reduction in constipation at 200 mg dosed daily for 6 months co-administered with 10 mg Montelukast dosed daily. The class given is functional, organism-based.
In assay [23] the test system is Homo sapiens. The assay is described as follows: Prevention of food allergy in patient with history of anaphylaxis due to allergens assessed as reduction in allergy symptoms at 200 mg dosed daily for 6 to 8 weeks co-administered with 10 mg Montelukast dosed daily. The class given is functional, organism-based.
In assay [24] the test system is Homo sapiens. Description: Improvement in disease symptoms in GERD patient assessed as reduction in heartburns at 200 mg dosed daily co-treated with 10 mg anti-H1 drug loratadine dosed daily. The class given is functional, organism-based.
Assay [25] has as its system Homo sapiens. The assay is described as follows: Improvement in disease symptoms in GERD patient assessed as reduction in regurgitation at 200 mg dosed daily co-treated with 10 mg anti-H1 drug loratadine dosed daily and 150 mg anti-H2 drug Ranitidine dosed daily. It counts as functional, organism-based.
The test system of assay [26] is Homo sapiens. The assay is described as follows: Improvement in disease symptoms in GERD patient assessed as reduction in heartburns at 200 mg dosed daily. It counts as functional, organism-based.
The subject of assay [27] is Homo sapiens. Description: Prevention of food allergy in pediatric patient with history of anaphylaxis due to nut allergy assessed as reduction in allergic symptoms at 200 mg dosed daily over 8 months co-administered with 10 mg Montelukast dosed daily. The class given is functional, organism-based.

What is called inhibition is the change of the read-out against control, counted positive when it falls. As for `CCOc1c(N)c2c(c(OCC)c1OCC)C(C1c3c(cc4c(c3OC)OCO4)CCN1C)OC2=O` (racemic), the inhibition in assay [1] was 17.5%.

Turning to `CCOc1c(N)c2c(c(OCC)c1OCC)C(C1c3c(cc4c(c3OC)OCO4)CCN1C)OC2=O` (stereo not drawn), the outcome in [2], in [3], in assay [4], in assay [7], in assay [9] and in assay [10] was Active. Also, the result in [11], in [12], in assay [13], in [14], in assay [15] and in [16] was Active. Moreover, the outcome in assay [17], in [18], in assay [19], in [20], in [21] and in assay [22] was Active. The result in assay [23], in [24], in assay [25] and in assay [27] was Active. For the same compound, the result in assay [5], in assay [6], in assay [8] and in assay [26] was inactive. Moreover, the inhibition in [1] is 36.5% and 27.9%.
